In PubChem BioAssay AID743317 (Broad Institute, 2014):
Results filed as inconclusive are left out. Active and inactive are the calls of the source.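 How the source made its calls: active means fitted curve reaches 40% activation at or below the top valid dose, and every replicate test is called active; inconclusive means replicate tests disagree, some active and some inactive; inactive means all replicate tests inactive, including activity in the wrong direction.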

Biological target: Endoplasmic reticulum aminopeptidase 1 (Homo sapiens) (UniProt Q9NZ08)
Test: ERAP1 aminopeptidase activity change, dose response, biochemical, fluorescence, cherry-pick (AID 743317)
Details: ERAP1 enzyme, Leu-AMC fluorescence, 60 min

Chain of Endoplasmic reticulum aminopeptidase 1 (Homo sapiens) (Q9NZ08 whole entry, looked up): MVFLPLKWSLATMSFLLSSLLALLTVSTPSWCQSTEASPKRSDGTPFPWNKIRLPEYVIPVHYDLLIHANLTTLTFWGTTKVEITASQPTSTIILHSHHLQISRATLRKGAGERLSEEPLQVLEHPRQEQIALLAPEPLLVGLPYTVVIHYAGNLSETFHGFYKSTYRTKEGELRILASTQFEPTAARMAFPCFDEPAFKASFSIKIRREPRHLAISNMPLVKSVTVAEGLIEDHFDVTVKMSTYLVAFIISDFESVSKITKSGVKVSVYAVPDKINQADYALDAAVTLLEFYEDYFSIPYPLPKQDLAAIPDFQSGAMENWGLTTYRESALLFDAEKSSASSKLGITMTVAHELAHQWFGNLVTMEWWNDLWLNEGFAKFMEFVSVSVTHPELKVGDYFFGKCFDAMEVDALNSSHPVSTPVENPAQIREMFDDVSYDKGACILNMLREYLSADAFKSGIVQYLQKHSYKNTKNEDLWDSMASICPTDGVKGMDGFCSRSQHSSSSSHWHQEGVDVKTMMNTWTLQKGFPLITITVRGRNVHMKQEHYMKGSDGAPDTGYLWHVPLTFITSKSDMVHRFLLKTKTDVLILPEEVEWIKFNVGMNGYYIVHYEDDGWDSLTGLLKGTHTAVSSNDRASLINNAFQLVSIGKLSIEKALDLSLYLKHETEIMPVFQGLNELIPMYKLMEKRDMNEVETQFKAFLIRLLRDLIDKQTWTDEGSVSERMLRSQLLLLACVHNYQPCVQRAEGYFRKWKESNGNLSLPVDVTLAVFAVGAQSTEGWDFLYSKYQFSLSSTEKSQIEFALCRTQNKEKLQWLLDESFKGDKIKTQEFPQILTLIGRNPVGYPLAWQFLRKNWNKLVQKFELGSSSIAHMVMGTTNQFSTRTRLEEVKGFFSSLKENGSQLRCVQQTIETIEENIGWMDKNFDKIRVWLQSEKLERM

## NC(=NCCc1c[nH]c2ccccc12)NS(=O)(=O)c1cc(F)ccc1F
At 11 µM (top of the series)
  activity increase (activation): -59.5% (inactive)

## COc1ccc(CN(C)C[C@@H]2OCCCC[C@@H](C)Oc3ccc(NS(=O)(=O)c4cccs4)cc3C(=O)N([C@H](C)CO)C[C@@H]2C)cc1
  AC40: 161 nM

## COc1ccc(S(=O)(=O)Nc2ccc3c(c2)C(=O)N([C@@H](C)CO)C[C@H](C)[C@H](CN(C)C)OCCCC[C@@H](C)O3)cc1
  AC40: 419 nM

## O=S(=O)(O)c1ccc(N2N=C(c3ccccc3)CC2c2ccccc2)cc1 (stereo unspecified)
  AC40: 4310 nM

## CCN(CC)Cc1c(O)ccc2cc(-c3nc4ccccc4n3C)c(=O)oc12
At 11 µM (top of the series)
  activity increase (activation): -105% (inactive)

## C[C@@H]1CCCCO[C@@H](CN(C)C)[C@@H](C)CN([C@H](C)CO)C(=O)c2cc(NS(=O)(=O)c3ccc(Cl)cc3)ccc2O1
  AC40: 381 nM

## CSC1=NS(=O)(=O)c2c(C)nn(C)c2S1
At 11 µM (top of the series)
  activity increase (activation): -42.5% (inactive)

## C[C@@H]1CCCCO[C@H](CN(C)Cc2ccccc2)[C@H](C)CN([C@H](C)CO)C(=O)c2cc(NS(=O)(=O)c3ccccc3)ccc2O1
  AC40: 358 nM

## COc1cc2cc(C(=O)N3CCN(Cc4ccc5c(c4)OCO5)CC3)c(=O)oc2cc1OC
  AC40: 4580 nM

## C[C@@H]1CCCCO[C@H](CN(C)C)[C@H](C)CN([C@H](C)CO)C(=O)c2cc(NS(=O)(=O)c3ccc(Cl)cc3)ccc2O1
  AC40: 548 nM

## Cc1c(Cc2ccccc2)c(=O)oc2cc(O)ccc12
At 11 µM (top of the series)
  activity increase (activation): -39.3% (inactive)

## COc1ccc(CN(C)C[C@@H]2OCCCC[C@@H](C)Oc3ccc(NS(=O)(=O)c4c(C)noc4C)cc3C(=O)N([C@@H](C)CO)C[C@@H]2C)cc1
  AC40: 1880 nM

## CC(C)(C)c1cc(N2CCOCC2)n2ncc(-c3ccccc3)c2n1
At 11 µM (top of the series)
  activity increase (activation): -42% (inactive)

## COc1ccc(NC(=O)Nc2cccc3c2O[C@H](CN(C)Cc2ccc(C(=O)O)cc2)[C@H](C)CN([C@H](C)CO)C3=O)cc1
  AC40: 5250 nM

## C[C@@H]1CCCCO[C@@H](CN(C)C(=O)CCC(F)(F)F)[C@@H](C)CN([C@@H](C)CO)C(=O)c2cc(NS(=O)(=O)c3ccccc3)ccc2O1
  AC40: 1730 nM

## Cc1ccc(S(=O)(=O)Nc2ccc3c(c2)C(=O)N([C@@H](C)CO)C[C@H](C)[C@H](CN(C)C)OCCCC[C@@H](C)O3)cc1
  AC40: 480 nM

## CCN(CC)Cc1c(O)c(Cl)cc2c(C)cc(=O)oc12
At 11 µM (top of the series)
  activity increase (activation): -83.4% (inactive)

## Cc1noc(C)c1S(=O)(=O)Nc1ccc2c(c1)C(=O)N([C@H](C)CO)C[C@H](C)[C@H](CN(C)Cc1ccc3c(c1)OCO3)OCCCC[C@@H](C)O2
  AC40: 2350 nM

## CNC[C@H]1OCCCC[C@@H](C)Oc2ccc(NS(=O)(=O)c3ccc(C)cc3)cc2C(=O)N([C@@H](C)CO)C[C@H]1C
  AC40: 3420 nM

## COc1ccc(CN(C)C[C@H]2OCCCC[C@@H](C)Oc3ccc(NS(=O)(=O)c4cccs4)cc3C(=O)N([C@@H](C)CO)C[C@H]2C)cc1
  AC40: 1110 nM

## O=c1ccc2cc(O[C@@H]3O[C@H](CO)[C@@H](O)[C@H](O)[C@H]3O)c(O)cc2o1
At 11 µM (top of the series)
  activity increase (activation): -98.9% (inactive)

## C[C@@H]1CCCCO[C@H](CN(C)Cc2ccc(C(=O)O)cc2)[C@@H](C)CN([C@H](C)CO)C(=O)c2cc(NC(=O)Nc3ccc(C(F)(F)F)cc3)ccc2O1
  AC40: < 160 nM

## Cc1cc(N(C)Cc2ccccc2)nc2cc(O)ccc12
At 11 µM (top of the series)
  activity increase (activation): -54% (inactive)

## CC1CCCC(C)N1CCCNC(=O)c1cc2c(s1)-c1ccccc1OC2 (stereo unspecified)
At 11 µM (top of the series)
  activity increase (activation): -45.6% (inactive)

## Cc1cc(=O)oc2cc(OCC(=O)N3CCN(C(C)c4ccccc4)CC3)c(Cl)cc12 (stereo unspecified)
  AC40: 6220 nM

## CO[C@@H]1CN(C)C(=O)c2ccc(NC(=O)Nc3cccc(Cl)c3)cc2OC[C@@H](C)NC[C@H]1C
  AC40: 1410 nM

## CCc1cc(=O)oc2c(CNCc3c(F)cccc3Cl)c(O)ccc12
At 11 µM (top of the series)
  activity increase (activation): -60.7% (inactive)

## C[C@H](CO)N1C[C@H](C)[C@H](CN(C)C)Oc2c(NC(=O)Nc3ccc(C(F)(F)F)cc3)cccc2C1=O
  AC40: 935 nM

## C[C@@H]1CCCCO[C@@H](CN(C)CC2CC2)[C@@H](C)CN([C@H](C)CO)C(=O)c2cc(NS(=O)(=O)c3ccc(Cl)cc3)ccc2O1
  AC40: 97.3 nM

## CCn1cc(CN2CCCC(C(=O)Nc3ccc(-c4nc5ccccc5[nH]4)cc3)C2)c(C)n1 (stereo unspecified)
  AC40: 3500 nM

## O=c1ccc2cc(O[C@@H]3O[C@@H](CO)[C@H](O)[C@@H](O)[C@@H]3O)c(O)cc2o1
At 5.6 µM (top of the series)
  activity increase (activation): -79.1% (inactive)

## Cc1ccc2nc3c(cc(C(=O)NCc4ccccc4)c(=N)n3CCCn3ccnc3)c(=O)n2c1
  AC40: 8840 nM

## Cc1c(O)ccc2cc(S(=O)(=O)c3ccccc3)c(=O)oc12
At 11 µM (top of the series)
  activity increase (activation): -94% (inactive)

## C[C@H](CO)N1C[C@H](C)[C@H](CN(C)Cc2ccc(C(=O)O)cc2)Oc2c(NC(=O)Nc3ccccc3)cccc2C1=O
  AC40: 2460 nM

## CN1CCN(Cc2c(O)ccc3cc(-c4ccccn4)c(=O)oc23)CC1
At 5.6 µM (top of the series)
  activity increase (activation): -103% (inactive)

## Cc1cc(=O)oc2c(CN3CCN(C)CC3)c(O)c(Cl)cc12
At 11 µM (top of the series)
  activity increase (activation): -69.3% (inactive)

## COc1ccc(-c2cc3ccc(O)cc3oc2=O)cc1
At 11 µM (top of the series)
  activity increase (activation): -75.7% (inactive)

## CN1[C@@H]2c3ccc(/C=C/c4ccccc4)c(=O)n3C[C@@H]2[C@@H](CO)[C@@H]1C(=O)NC1CCCC1
At 11 µM (top of the series)
  activity increase (activation): -14.6% (inactive)

## C[C@@H]1CCCCO[C@@H](CN(C)C(=O)CCC(F)(F)F)[C@@H](C)CN([C@@H](C)CO)C(=O)c2cc(NS(=O)(=O)c3ccc(Cl)cc3)ccc2O1
  AC40: 191 nM

## Cc1c(C)c2ccc(O)c(CN3CCN(C)CC3)c2oc1=O
At 11 µM (top of the series)
  activity increase (activation): -52.8% (inactive)

## C[C@H]1CN([C@@H](C)CO)C(=O)c2cccc(NC(=O)Nc3ccc(C(F)(F)F)cc3)c2O[C@@H]1CN(C)CC1CC1
  AC40: 541 nM

## CCCN(C)C[C@@H]1OCCCC[C@@H](C)Oc2ccc(NS(=O)(=O)c3ccc(OC)cc3)cc2C(=O)N([C@H](C)CO)C[C@@H]1C
  AC40: 812 nM

## COc1ccc(-c2cc3ccc(O)cc3oc2=O)cc1OC
At 11 µM (top of the series)
  activity increase (activation): -92.7% (inactive)

## COc1ccc(CN(C)C[C@@H]2OCCCC[C@@H](C)Oc3ccc(NS(=O)(=O)c4cccs4)cc3C(=O)N([C@@H](C)CO)C[C@H]2C)cc1
  AC40: 577 nM

## N#Cc1c(N2CCNCC2)nc(-c2ccco2)c2c1CCCC2
At 11 µM (top of the series)
  activity increase (activation): -51.7% (inactive)

## C[C@@H]1CCCCO[C@@H](CN(C)Cc2ccccc2)[C@H](C)CN([C@H](C)CO)C(=O)c2cc(NS(=O)(=O)c3cccs3)ccc2O1
  AC40: 528 nM

## Cc1c(CC(=O)N2CCN(C(=O)C3COc4ccccc4O3)CC2)c(=O)oc2cc(O)c(Cl)cc12 (stereo unspecified)
At 11 µM (top of the series)
  activity increase (activation): -33.4% (inactive)

## C[C@@H]1CCCCO[C@@H](CN(C)S(C)(=O)=O)[C@@H](C)CN([C@@H](C)CO)C(=O)c2cc(NS(=O)(=O)c3ccc(Cl)cc3)ccc2O1
  AC40: 266 nM

## Cc1cc(=O)oc2c(CN3CCCCC3)c(O)ccc12
At 11 µM (top of the series)
  activity increase (activation): -81.1% (inactive)

## COc1ccc(CN(C)C[C@@H]2OCCCC[C@H](C)Oc3ccc(NS(=O)(=O)c4cccs4)cc3C(=O)N([C@H](C)CO)C[C@@H]2C)cc1
  AC40: 7890 nM

## Cc1c(O)ccc2c(CN3CCN(Cc4ccccc4)CC3)cc(=O)oc12
  AC40: 4100 nM

## O=C(O)c1ccccc1NS(=O)(=O)c1cccc(-n2sc3ccccc3c2=O)c1
At 11 µM (top of the series)
  activity increase (activation): -98.6% (inactive)

## C[C@@H]1CCCCO[C@@H](CN(C)CC2CCCCC2)[C@H](C)CN([C@@H](C)CO)C(=O)c2cc(NC(=O)Nc3ccccc3)ccc2O1
  AC40: 357 nM

## CCCN(C)C[C@@H]1OCCCC[C@H](C)Oc2ccc(NC(=O)Nc3ccc(F)cc3)cc2C(=O)N([C@H](C)CO)C[C@@H]1C
  AC40: 4370 nM

## COc1ccc(CNCc2c(O)c(Cl)cc3c(C)c(C)c(=O)oc23)c(OC)c1
  AC40: 2190 nM

## COc1ccc(NC(=O)Nc2ccc3c(c2)C(=O)N([C@@H](C)CO)C[C@@H](C)[C@@H](CN(C)Cc2ccc(C(=O)O)cc2)OCCCC[C@@H](C)O3)cc1
  AC40: < 80 nM

## CCCN(C)C[C@@H]1OCCCC[C@@H](C)Oc2ccc(NS(=O)(=O)c3ccccc3)cc2C(=O)N([C@H](C)CO)C[C@@H]1C
  AC40: 1040 nM

## COc1ccc(NC(=O)Nc2ccc3c(c2)C(=O)N([C@H](C)CO)C[C@@H](C)[C@@H](CN(C)Cc2ccc(C(=O)O)cc2)OCCCC[C@@H](C)O3)cc1
  AC40: 652 nM

## Cc1noc(C)c1S(=O)(=O)Nc1ccc2c(c1)C(=O)N([C@H](C)CO)C[C@@H](C)[C@@H](CN(C)CC1CCCCC1)OCCCC[C@@H](C)O2
  AC40: 5460 nM

## O=c1oc2cc(O)ccc2cc1S(=O)(=O)c1ccccc1
At 11 µM (top of the series)
  activity increase (activation): 349% (inactive)

## O=c1cc(CN2CCN(Cc3ccccc3)CC2)c2ccc(O)cc2o1
  AC40: 1680 nM

## COc1ccc(NC(=O)Nc2ccc3c(c2)C(=O)N([C@H](C)CO)C[C@@H](C)[C@H](CN(C)Cc2ccc(C(=O)O)cc2)OCCCC[C@@H](C)O3)cc1
  AC40: 3300 nM

## COc1cccc(CN(C)Cc2cc(=O)oc3cc(O)c(Cl)cc23)c1
  AC40: 2900 nM

## Cc1cc(=O)oc2c(CN3CCN(CCO)CC3)c(O)ccc12
At 11 µM (top of the series)
  activity increase (activation): -61.9% (inactive)

## Cc1ccc(-c2cc(C(=O)N3CCCC3)c3ccccc3n2)s1
  AC40: 6450 nM

## C[C@@H]1CN([C@H](C)CO)C(=O)c2cccc(NC(=O)Nc3ccccc3)c2O[C@@H]1CN(C)Cc1ccc(C(=O)O)cc1
  AC40: 3610 nM

## CCCN(C)C[C@@H]1OCCCC[C@@H](C)Oc2ccc(NS(=O)(=O)c3ccc(C)cc3)cc2C(=O)N([C@H](C)CO)C[C@@H]1C
  AC40: 1420 nM

## Cc1ccccc1-c1ccc2c(c1)O[C@@H](CN(C)Cc1ccc(C(=O)O)cc1)[C@@H](C)CN([C@@H](C)CO)S2(=O)=O
  AC40: 1240 nM

## Cc1c(-c2ccccc2)c(=O)oc2cc(O)ccc12
At 11 µM (top of the series)
  activity increase (activation): -87.3% (inactive)

## Cc1noc(C)c1S(=O)(=O)N(C)C[C@@H]1OCCCC[C@@H](C)Oc2ccc(NS(=O)(=O)c3cccs3)cc2C(=O)N([C@@H](C)CO)C[C@@H]1C
  AC40: < 80 nM

## N#Cc1c(N)n(CCNC(=O)c2ccccc2)c2nc3ccccc3nc12
  AC40: 10000 nM

## C[C@H](CO)N1C[C@H](C)[C@@H](CN(C)CC2CC2)Oc2c(NC(=O)Nc3ccc(C(F)(F)F)cc3)cccc2C1=O
  AC40: 757 nM

## C[C@@H]1CN([C@H](C)CO)C(=O)c2cc(NC(=O)Nc3ccc(F)cc3)ccc2O[C@H]1CN(C)Cc1ccc(C(=O)O)cc1
  AC40: 484 nM

## CC1CN(Cc2cc(=O)oc3cc(O)c(Cl)cc23)CC(C)O1 (stereo unspecified)
  AC40: 3400 nM

## O=c1cc(CN2CCOCC2)c2cc(Cl)c(O)cc2o1
  AC40: 4840 nM

## CCCCc1cc(=O)oc2cc(O)ccc12
At 11 µM (top of the series)
  activity increase (activation): -62.4% (inactive)
